Data set [1] can be described thus: Plasma protein binding (c). The data set is classed as in vitro ADME, c (presumably cynomolgus). The following applies: cynomolgus monkey, pH 7.4, read-out: fu plasma (c). Here is the method: page 13: at half log concentrations in DMSO were further diluted in assay buffer. The compounds or DMSO vehicle were added to cells and incubated for 2.5 min and an EC20 concentration of glutamate was added and incubated for 1 min. An ECmax concentration of glutamate was also added to cells that were incubated with DMSO vehicle to accurately calculate the EC20 calcium response. Data were normalized by subtracting the basal florescent peak before EC20 agonist addition from the maximal peak elicited by EC20 agonist and PAMs. Using GraphPad Prism 5.0, the concentration response curves were generated and the potencies of the mGlu1 PAMs were determined. DMPK Methods Plasma protein binding: The protein binding of each compound was determined in plasma via equilibrium dialysis employing RED Plates (ThermoFisher Scientific, Rochester, NY). Plasma was added to the 96 well plate containing test compound and mixed thoroughly for a final concentration of 5 µM. Subsequently, an aliquot of the plasma-compound mixture was transferred to the cis chamber (red) of the RED plate, with an phosphate buffer (25 mM, pH 7.4) in the trans chamber. The RED plate was sealed and incubated for 4 hours at 37°C with shaking. […] The in vitro half-life (T 1/2, min, Eq. 1), intrinsic clearance (CLint, mL/min/kg, Eq. 2) and subsequent predicted hepatic clearance (CLhep, mL/min/kg, Eq. 3) was determined S13

A short description of another data set: Kinetic solubility. The data set is classed as physicochemical. As to conditions: kinetic from dmso stock.
For data set [2], the system named is MK-801 disruption of novel object recognition in rats. The data set is described as follows: Rat MK-801-induced disruption of novel object recognition (NOR). The data set is classed as in vivo. Here is the method: mode (5.0 kV spray voltage). The calibration curves were constructed in blank plasma. All data were analyzed using AB Sciex Analyst software v1.5.1.
All animal study procedures were approved by the Institutional Animal Care and Use Committee and were conducted in accordance with the National Institutes of Health regulations of animal care covered in Principles of Laboratory Animal Care (National Institutes of Health). […]
GraphPad Prism (version 4.03, GraphPad, La Jolla, CA). […]
The animals are habituated to the novel object arenas for one day prior to testing. This is accomplished by placing the animal in the arena with no objects for 10 min and then placed back […]
into the home cage. The arena is then cleaned with 70% ethanol in between animals. The day of the test the animals are habituated to the dosing room for 2 hours. […]
The animals were then injected with MK-801 (0.075 mg/kg 1 ml/kg s.c.) and placed back in the homecage for 30 min. The animals are then placed into the arena with two identical familiar objects for ten minutes and then placed back into the home cage. The animals are then placed back into the arena with one of the familiar objects replaced with a novel object at 120 min after the familiar object exposure. The activity of the animals are recorded and the time spent exploring each of the objects is scored by a blinded observer. Recognition index is determined by subtracting the time spent with the […] divided by total time spent exploring. […]
NaCl, 26 mM NaHCO3, 11mM D-glucose, 2.5 mM KCl, 2.45mM CaCl2, 1.25mM NaH2PO4 and 1.2mM MgSO4 which was supplemented with 5mM sodium ascorbate. Slices were recovered for at least 1 hour prior to recording. During recording slices were perfused with aCSF in the absence of ascorbate and presence of […] DhβE to block nAChR-mediated dopamine release. […]
Briefly, a triangular voltage wave (-400 to +1000 mV at 300 V/sec) was applied to a fresh-cut carbon fiber electrode every 100 msec. […]

Data set [3] is described as follows: Single IV bolus PK and tolerability in male beagle dogs. The data set is classed as in vivo. The following applies: male beagle dog, 0.5 mg/kg IV bolus.

“Also recorded” adds a separate entry of the source. Where two headings read alike, the source gives them in different places.

Results on one compound are retold here after PMC11843613, “Further Optimization of the mGlu1 PAM VU6024578/BI02982816: Discovery and Characterization of VU6033685” (ACS Chemical Neuroscience, 2025).

For the compound `Cc1nc(C2CC2)ccc1CNC(=O)c1cc(-n2cccn2)ccc1Cl` [compound 8], in data set [1], the fraction unbound at 4 h, 5 µM stood at 0.46. The solubility (kinetic) in the data set “Kinetic solubility” (pH 2.2, aqueous buffer, read-out: Kinetic solubility pH 2.2) was > 100 µM; in “Kinetic solubility” (pH 6.8, aqueous buffer, read-out: Kinetic solubility pH 6.8), < 1 µM. In data set [2] (rat PO 30 mg/kg), the “free brain level as fold of rat in vitro EC50 at 30 mg/kg in NOR” value is listed as ~5.2 fold. Besides, in data set [2] (rat PO 30 mg/kg, 0.5% Natrasol/0.015% Tween 80 in water), the “free brain level at 30 mg/kg in NOR” value stood at 579 nM. For the same compound, in data set [2] (rat, PO, MK-801 0.075 mg/kg SC, one-way ANOVA p = 0.13), the “reversal of MK-801 disruption of novel object recognition” value is reported as “dose-dependently reverse the deficits induced by MK-801; also recorded: dose-dependently reversed”. For the same compound, in data set [3], the “adverse events in dogs” value was “all dogs displayed dizziness, salivation, and uncoordinated movements”. For the same compound, the clearance in data set [3] (plasma, read-out: CLp (dog)) is 10 mL/min/kg. In data set [3] (plasma, read-out: Vss (dog)), the Vd stood at 4.6 L/kg. Moreover, the half-life in data set [3] (plasma, read-out: t1/2 (dog) (converted)) is 6.5 h.

What is called solubility (kinetic) is solubility judged after dilution from a stock solution rather than from solid.
